Test results as given in US6545182B2, “Methods and compositions for modulating alpha adrenergic receptor activity” (Allergan Sales, Inc., priority 2000, dated 2003).

Experiments:
Format in all cases: cell-based
[1] = target: T1, alpha 2A adrenergic receptor (Homo sapiens, UniProt P08913); assay: RSAT (Receptor Selection and Amplification Technology) assay, alpha 2A; conditions: for EC50: NIH-3T3 cells cotransfected with receptor and Gq/i5; for efficacy or intrinsic activity (value in parentheses) Alpha 2A: ratio of maximal effect to that of standard full agonist brimonidine
T1 construct: expressed in transfected cells; host or cells: NIH-3T3 cells, transient cotransfection by calcium phosphate
T1 sequence (P08913 1-465): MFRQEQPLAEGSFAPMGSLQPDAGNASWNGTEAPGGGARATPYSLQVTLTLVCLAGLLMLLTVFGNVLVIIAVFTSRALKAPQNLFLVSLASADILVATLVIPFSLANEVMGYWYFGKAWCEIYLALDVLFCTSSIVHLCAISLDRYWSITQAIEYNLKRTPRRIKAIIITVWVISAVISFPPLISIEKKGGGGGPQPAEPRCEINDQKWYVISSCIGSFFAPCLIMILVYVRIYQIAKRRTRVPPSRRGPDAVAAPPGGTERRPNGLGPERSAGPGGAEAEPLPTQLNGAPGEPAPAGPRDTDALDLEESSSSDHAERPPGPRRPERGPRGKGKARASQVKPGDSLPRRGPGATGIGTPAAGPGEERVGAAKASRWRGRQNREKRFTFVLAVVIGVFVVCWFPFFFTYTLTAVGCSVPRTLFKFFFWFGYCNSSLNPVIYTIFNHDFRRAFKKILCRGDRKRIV
Protocol: (§1) Activity was measured using the RSAT (Receptor Selection and Amplification Technology) assay, developed by Receptor Technologies, Inc. of Winooski, Vt. (now Acadia Pharmaceuticals of San Diego, Calif.), adapted for use with recombinant alpha2 adrenergic receptors in collaboration with Allergan. The assay measures receptor-mediated loss of contact inhibition that results in selective proliferation of receptor-containing cells in a mixed population of confluent cells. The increase in cell number is assessed with an appropriate transfected marker gene such as β-galactosidase, the activity of which can be easily measured in a 96-well format. Receptors that activate the G protein, Gq, elicit this response. Alpha2 receptors, which normally couple to Gi, activate the RSAT response when coexpressed with a hybrid Gq protein that has a Gi receptor recognition domain, called Gq/i5.
(§2) The assay is conducted as follows. NIH-3T3 cells are plated at a density of 2×10^6 cells in 15 cm dishes and maintained in Dulbecco's modified Eagle's medium supplemented with 10% calf serum. One day later, cells are cotransfected by calcium phosphate precipitation with mammalian expression plasmids encoding p-SV-β-galactosidase (5-10 μg), receptor (1-2 μg) and G protein (1-2 μg). 40 μg salmon sperm DNA may also be included in the transfection mixture to increase transfection efficiency. Fresh media is added on the following day and 1-2 days later, cells are harvested and frozen in 50 assay aliquots. Transfectant cells are thawed and 100 μl added to 100 μl aliquots of various concentrations of drugs in triplicate in 96-well dishes. Incubations continue 72-96 hr at 37°. After washing with phosphate-buffered saline, β-galactosidase enzyme activity is determined by adding 200 μl of the chromogenic substrate (consisting of 3.5 mM o-nitrophenyl-β-D-galactopyranoside and 0.5% of the non-ionic surfactant nonidet P-40 in phosphate buffered saline), incubating overnight at 30° and measuring optical density at 420 nm. The absorbency is a measure of enzyme activity, which depends on cell number and reflects a receptor-mediated cell proliferation. The EC50 and maximal effect of each drug at each alpha2 receptor is determined. The efficacy or intrinsic activity is calculated as a ratio of the maximal effect of the drug to the maximal effect of a standard full agonist for each receptor subtype. Brimonidine, also called UK14304, is used as the standard agonist for the alpha2A, alpha2B and alpha2C receptors. The RSAT assay is also discussed in Messier et al. (1995) High throughput assays of cloned adrenergic, muscarinic, neurokinin and neurotrophin receptors in living mammalian cells, Pharmacol. Toxicol. 76:308-11; see also Conklin et al. (1993) Substitution of three amino acids switches receptor specificity of Gqα to that of Giα, Nature 363:274-6; Both of these papers are incorporated by reference herein.

[2] = target: T2, alpha 2C adrenergic receptor (Homo sapiens, UniProt P18825); assay: RSAT (Receptor Selection and Amplification Technology) assay, alpha 2C; conditions: for EC50: NIH-3T3 cells cotransfected with receptor and Gq/i5; for efficacy or intrinsic activity (value in parentheses) Alpha 2C: ratio of maximal effect to that of standard full agonist brimonidine
T2 construct: expressed in transfected cells; host or cells: NIH-3T3 cells, transient cotransfection by calcium phosphate
T2 sequence (P18825 1-462): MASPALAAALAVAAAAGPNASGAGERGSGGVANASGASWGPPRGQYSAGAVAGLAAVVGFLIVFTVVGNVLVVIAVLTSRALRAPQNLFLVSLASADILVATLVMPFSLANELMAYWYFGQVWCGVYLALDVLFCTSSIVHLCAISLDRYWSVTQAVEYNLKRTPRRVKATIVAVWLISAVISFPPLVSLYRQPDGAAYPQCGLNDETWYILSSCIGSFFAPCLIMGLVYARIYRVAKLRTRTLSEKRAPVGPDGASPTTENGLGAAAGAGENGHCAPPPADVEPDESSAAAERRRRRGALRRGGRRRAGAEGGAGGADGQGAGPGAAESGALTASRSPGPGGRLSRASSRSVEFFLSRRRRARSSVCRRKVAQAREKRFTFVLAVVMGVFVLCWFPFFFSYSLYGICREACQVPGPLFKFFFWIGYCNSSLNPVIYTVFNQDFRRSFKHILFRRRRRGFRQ
Protocol: as §1, §2

[3] = target: T3, alpha 2B adrenergic receptor (Homo sapiens, UniProt P18089); assay: RSAT (Receptor Selection and Amplification Technology) assay, alpha 2B; conditions: for EC50: NIH-3T3 cells cotransfected with receptor and Gq/i5; for efficacy or intrinsic activity (value in parentheses) Alpha 2B: ratio of maximal effect to that of standard full agonist brimonidine
T3 construct: expressed in transfected cells; host or cells: NIH-3T3 cells, transient cotransfection by calcium phosphate
T3 sequence (P18089 1-450): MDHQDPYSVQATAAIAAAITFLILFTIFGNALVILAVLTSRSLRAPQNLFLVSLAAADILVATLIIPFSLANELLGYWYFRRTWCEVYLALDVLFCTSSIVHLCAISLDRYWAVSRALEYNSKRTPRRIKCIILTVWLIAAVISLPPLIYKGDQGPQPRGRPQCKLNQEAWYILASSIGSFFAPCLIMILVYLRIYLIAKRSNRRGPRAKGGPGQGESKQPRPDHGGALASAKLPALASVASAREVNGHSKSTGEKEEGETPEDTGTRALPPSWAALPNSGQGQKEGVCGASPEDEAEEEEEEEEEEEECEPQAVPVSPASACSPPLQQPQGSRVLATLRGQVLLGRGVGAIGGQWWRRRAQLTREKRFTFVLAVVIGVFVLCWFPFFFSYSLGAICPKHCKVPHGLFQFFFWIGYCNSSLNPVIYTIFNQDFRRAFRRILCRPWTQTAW
Protocol: as §1, §2

Compound | EC50 [1] [nM] | EC50 [2] [nM] | efficacy or intrinsic activity (value in parentheses) Alpha 2C [2] | EC50 [3] [nM] | efficacy or intrinsic activity (value in parentheses) Alpha 2B [3] | efficacy or intrinsic activity (value in parentheses) Alpha 2A [1]
Cc1cc(Br)c(F)c(CNC(=S)NCCO)c1 | > 2000 | 819 | 0.56 | 22 | 0.73 | –
OCCNC(=S)NCc1cccc(Cl)c1Cl | ≥ 210000 | 54.5 | 0.33 | 3 | 0.99 | –
OCCNC(=S)NCc1c(F)cccc1Cl | ≥ 210000 | ≥ 210000 | – | 174 | 0.55 | –
OCCNC(=S)NCc1cccc(Cl)c1F [drawing 20] | ≥ 210000 | 457 | 0.37 | 16 | 0.82 | –
OCCNC(=S)NCc1c(Br)ccc(I)c1F | ≥ 210000 | ≥ 210000 | – | 70 | 0.49 | –
COc1ccc(F)cc1CNC(=S)NCCO | 930 | 45 | 0.78 | 9 | 0.96 | 0.39
OCCNC(=S)NCc1cc(F)ccc1O | ≥ 210000 | 144 | 0.74 | 27 | 1.20 | –
OCCNC(=S)NCc1c(F)c(F)c(F)c(F)c1F | ≥ 210000 | ≥ 210000 | – | 2360 | 0.73 | –
OCCNC(=S)NCc1cc(Br)c(F)c(F)c1F | ≥ 210000 | ≥ 210000 | – | 512 | 1.07 | –
Cc1ccc(Br)c(F)c1CNC(=S)NCCO | ≥ 210000 | > 2000 | – | 181 | 0.95 | –
OCCNC(=S)NCc1ccc(F)c(F)c1F | ≥ 210000 | ≥ 210000 | – | 482 | 0.76 | –
Cc1ccccc1CNC(=S)NCCO | ≥ 210000 | ≥ 210000 | – | 174 | 0.7 | –
OCCNC(=S)NCc1ccccc1C(F)(F)F | ≥ 210000 | 783 | 0.4 | 694 | 0.93 | –
OCCNC(=S)NCc1c(F)ccc(F)c1Cl | ≥ 210000 | 1850 | 0.54 | 44 | 0.94 | –
OCCNC(=S)NCc1cccc(Br)c1F | 136 | 41 | 0.88 | 5.5 | 1.03 | 0.52
OCCNC(=S)NCc1c(Br)ccc(F)c1F | ≥ 210000 | ≥ 210000 | – | 48 | 0.60 | –
OCCNC(=S)NCc1cccc(I)c1 | 63 | 232 | 0.58 | 30 | 1.16 | 0.42
Cc1ccc(CNC(=S)NCCO)cc1 | ≥ 210000 | 1810 | 0.4 | 59 | 0.6 | –
OCCNC(=S)NCc1ccccc1I | ≥ 210000 | 226 | 0.7 | 21 | 1.26 | –
Cc1cc(Cl)c(F)c(CNC(=S)NCCO)c1 | 546 | 278 | 0.66 | 62 | 1.06 | 0.31
